What was measured:
SW1573 cells [1] = experiment: CyQUANT cell proliferation assay; format: cell-based; settings: Homo sapiens, SW1573, 120 h
Protocol: (§1) Human NSCLC cell lines, SW1573 and H2122 cells, were obtained from the American Type Culture Collection. Both cell lines carry a KRAS G12C mutation and CDKN2A homozygous deletion. The cell lines were authenticated by short tandem fingerprinting in 2022 and periodically tested to be Mycoplasma-free. H2122 cells were cultured in RPMI-1640 supplemented with 10% fetal bovine serum. SW1573 cells were maintained in DMEM supplemented with 5% FBS. Both cell lines were cultured at 37 °C in a 5% CO2-humidified atmosphere and passaged when they reached 80–90% confluence. Cells were transduced with a lentivirus vector carrying cDNA coding for firefly luciferase and mCherry to generate SW1573-FmC and H2122-FmC for in vivo studies.

H2122 cells [2] = experiment: CyQUANT cell proliferation assay; format: cell-based, human; settings: 120 h drug exposure
Protocol: as §1

H2122-FmC cells = experiment: CyQUANT cell proliferation assay, FmC-transduced cells; format: cell-based; settings: Homo sapiens, 120h drug exposure
Protocol: as §1, with “studies. […]” for “studies.”
(§2) cell viability of firefly-luciferase and mCherry (FmC)-transduced NSCLC cells.
(§3) A, Image representing cell line transduction procedures, involving overnight exposure with a lentivirus vector expressing Firefly luciferase and mCherry. B, C, CellTiter-Glo and CyQUANT […]
(§4) Highest Single Agent model analysis in SW1573-FmC (D) and H2122-FmC (E) cell lines (96h […]
(§5) HSA synergy and antagonism

SW1573-FmC cells = experiment: as above; format: cell-based; settings: Homo sapiens, 120h drug exposure
Protocol: as §1, with “studies. […]” for “studies.”
as §2, §3, §4, §5

[3] = test system: phospho-ERK (p-ERK) in SW1573 cells; experiment: Western blot of phospho-ERK; format: cell-based, human; settings: 48 h, 1,000 nM adagrasib and/or 1,000 nM abemaciclib
[4] = test system: p-Rb (Ser807/811) in H2122 cells; experiment: Western blot of phospho-Rb; format: cell-based, human; settings: 24 h exposure
Protocol: (§6) Cells and tissues were lysed in RIPA lysis buffer (Pierce). The protein concentration was measured using Bradford assay (BioRad). Protein lysates were separated by Mini-PROTEAN TGX gel electrophoresis (BioRad) and subsequently transferred to PVDF membranes (BioRad) for immunoblotting analysis. The membrane was blocked with 5% non-fat skim milk in Tris-buffered saline with tween. Incubation in diluted primary antibodies was conducted overnight and diluted horseradish peroxidase-conjugated secondary antibodies were subsequently applied. Immunoreactive bands were detected using ECL substrate reagent (BioRad), and the membrane was developed using a ChemiDoc XRS + system (BioRad). Primary antibodies used were against: phospho-ERK (Cell Signaling Technology (CST), 4370), ERK (CST, 9102), phospho-Rb (Ser807/811, CST, 8516), β-actin (CST, 3700), and vinculin (Millipore Sigma, 05–386).

[5] = test system: p-Rb (Ser807/811) in SW1573 cells; experiment: Western blot of phospho-Rb; format: cell-based, human; settings: 24 h exposure
Protocol: as §6

H2122 cells [6] = experiment: Flow cytometry cell cycle analysis; format: cell-based, human; settings: 24 h drug exposure
Protocol: (§7) Cells were harvested, washed with PBS, and fixed in 2% paraformaldehyde. After the samples were prepared for analysis, fixed cells were resuspended in media and incubated with Vybrant DyeCycle Violet stain (ThermoFisher) for 30 min at 37 °C while protected from light. Flow cytometry was conducted using LSR II Cytometer (BD Biosciences) and analysis was done with FlowJo software and the Dean Jett-Fox algorithm.

SW1573 cells [7] = experiment: Flow cytometry cell cycle analysis; format: cell-based, human; settings: 24 h drug exposure
Protocol: as §7

[8] = test system: caspase 3/7 in SW1573 cells; experiment: Caspase 3/7-Glo cell death assay; format: cell-based, human; settings: 48 h, 1,000 nM adagrasib, 1,000 nM abemaciclib, alone or combined
Protocol: (§8) For the caspase 3/7 assay, differences in luminescence signals (from control) were determined using One-Way ANOVA. Differences in BLI radiance were tested for statistical significance using the One-Way ANOVA comparison. Statistical comparisons between two groups were considered significant when the adjusted P value was below 0.05 (P < 0.05). Kaplan–Meier analysis and log-rank test were used for the analysis of animal overall survival, comparing the groups.

[9] = test system: H2122-FmC intracranial tumors; experiment: Intracranial xenograft efficacy study (BLI, survival, body weight); format: in vivo, female nude (athymic) mice; settings: H2122-FmC model
Protocol: (§9) All the animal studies were conducted in compliance with all applicable regulations and guidelines of the Institutional Animal Care and Use Committee. Six-to-eight-week-old female nude (athymic) mice were obtained from Charles River Laboratory and maintained under pathogen-free conditions, with food and water provided ad libitum. Mice were implanted intracranially with SW1573-FmC (2 × 10^5 in 2 μL serum-free media) or H2122-FmC cells (1.5 × 10^5 in 2 μL serum-free media) in the right striatum region under general anesthesia using stereotactic procedures as previously described. Animal health was monitored daily.
(§10) Animals were humanely euthanized when > 20% body weight loss or > 15% body weight loss plus neurological signs was noted. Survival data were collected for each group and analyzed using the Kaplan–Meier method. Survival duration by group was tested for statistical significance using the Gehan-Breslow-Wilcoxon test with False Discovery Rate correction. Statistical comparisons were considered significant when the adjusted P value was below 0.05 (P < 0.05).
(§11) Animals were injected intraperitoneally with luciferin (150 mg/kg, 0.01 mL/g) based on body weight and anesthetized using 1–2% isoflurane in oxygen at 1–2 L/minute. Images were acquired beginning at 7 min after luciferin injection for three time points (7, 15, and 30 min). Region of interest (ROI) analysis was completed on BLI images using AURA software (Spectral Instrument Imaging). BLI images were generated by overlaying BLI signals for each animal onto their respective white-light images for anatomic reference. Brain ROIs were generated using a fixed area circle and were placed based on the BLI signal in the relevant area, using the photographic anatomical reference images. BLI signals in images were scaled in units of radiance (photons per second per […] per steradian). Prism 9 software (Graph Pad) was used to generate relevant plots based on the in vivo quantification.
as §8

[10] = test system: SW1573-FmC intracranial tumors; experiment: as above; format: in vivo, female nude (athymic) mice; settings: SW1573-FmC model
Protocol: as §9, §10, §11, §8

[11] = test system: SW1573-FmC intracranial tumors; experiment: Pharmacodynamic immunohistochemistry of brain tumors; format: in vivo, mice; settings: SW1573-FmC xenograft, 3 days treatment
From the text: Formalin-fixed paraffin-embedded Sects. (7-μm thickness) were subjected to immunohistochemistry according to the methods described previously. Primary antibodies used included those directed at: p-ERK (CST), p-Rb (CST), Ki67 (Dako, MIB1) and Cleaved caspase 3 (CST, 9661). Immuno-positive cells and negative cells within tumor tissues were counted and the fraction of positive cells determined.

human p-gp = human p-gp ref 6, 34; cited from earlier work
[12] = clinically ref 23; cited from earlier work
human CYP3A4 = settings: cited from earlier work
[13] = Pharmacokinetic study, plasma and brain concentration by LC-MS/MS; settings: H2122-FmC and SW1573-FmC tumor-bearing mice, oral adagrasib 75 mg/kg BID or abemaciclib 50 mg/kg QD for three days, 1 h after last dose
[14] = design: method as in PMID 31658955; settings: cited from earlier work
[15] = test system: progressive BM with CDK pathway alterations; settings: patients with progressive BM with CDK pathway alterations ref 21; cited from earlier work

CCN1CCN(Cc2ccc(Nc3ncc(F)c(-c4cc(F)c5nc(C)n(C(C)C)c5c4)n3)nc2)CC1 [abemaciclib]
IC50 (SW1573 cells [1]; 120-h drug exposure): 1000 nM | IC50 (SW1573 cells [1]; 120 h drug exposure): 833 nM | IC50 (H2122 cells [2]): 626 nM | IC50 (H2122 cells [2]; Homo sapiens, NCI-H2122, 120 h): 600 nM | IC50 (H2122-FmC cells): 518 nM | IC50 (SW1573-FmC cells): 1000 nM | Effect on p-ERK (immunoblot, co-treatment experiment) [3]: modestly suppressed p-ERK | Effect on p-Rb (Ser807 and Ser811, immunoblot) [4]: dose-dependent inhibition of p-Rb | Effect on p-Rb (Ser807 and Ser811, immunoblot) [5]: dose-dependent inhibition of p-Rb | Effect on cell cycle phase fractions (H2122 cells [6]): significantly increased the fraction of G1 phase and decreased the fractions of S and G2 phases | Effect on cell cycle phase fractions (SW1573 cells [7]): significantly increased the fraction of G1 phase and decreased the fractions of S and G2 phases | Caspase 3/7 activity [8]: did not significantly provoke activation of caspase 3/7 | Animal survival (Kaplan–Meier) vs control ([9]; 5-week treatment, adagrasib 75 mg/kg BID, abemaciclib 50 mg/kg QD): no survival efficacy | BLI post-treatment signals vs control ([9]; day 40, no statistical significance): signals comparable to the control | Overall survival (Kaplan–Meier) ([10]; 5-week treatment, animals with pre-treatment spinal disease excluded): did not show survival benefit | Overall survival (Kaplan–Meier), all animals included ([10]; comparison of the groups, including animals with spinal disease): No statistical significance | BLI signal intensity (radiance) vs vehicle ([10]; day 40, adagrasib 75 mg/kg BID, abemaciclib 50 mg/kg QD, animals with pre-treatment spinal disease excluded): lower average BLI compared to the vehicle, without statistical significance | Cleaved caspase 3 (C-Cas3) positivity in tumor (IHC) [11]: very few C-Cas3 positive cells | p-ERK-positive cells in tumor (IHC) [11]: decreased p-ERK-positive cells | p-Rb-positive cells in tumor (IHC) [11]: modestly decreased P-Rb immunopositivity | P-gp-mediated efflux interaction (human p-gp): substrates and inhibitors of human p-gp-mediated efflux | CSF versus plasma concentrations [12]: comparable concentrations in the CSF and plasma | CYP3A4 interaction (human CYP3A4): substrate of CYP3A4 | Concentration in brain [13]: 200 to 300 ng/mL | Concentration in plasma [13]: 290 to 400 ng/mL

C=C(F)C(=O)N1CCN(c2nc(OC[C@@H]3CCCN3C)nc3c2CCN(c2cccc4cccc(Cl)c24)C3)C[C@@H]1CC#N [adagrasib]
Cleaved caspase 3 (C-Cas3) positivity in tumor (IHC) [11]: trend of increased positivity | p-ERK-positive cells in tumor (IHC) [11]: decrease of p-ERK-positive cells | p-Rb-positive cells in tumor (IHC) [11]: decreased p-Rb-positive cells | Half-life [14]: 24 h | P-gp-mediated efflux interaction (human p-gp): substrates and inhibitors of human p-gp-mediated efflux | CYP3A4 interaction (human CYP3A4): time-dependent inhibition of human CYP3A4

CC(=O)c1c(C)c2cnc(Nc3ccc(N4CCNCC4)cn3)nc2n(C2CCCC2)c1=O [palbociclib]
Intracranial activity in patients [15]: demonstrated intracranial activity

Reference: article PMC12046717 (Acta Neuropathologica Communications, 2025)
